The results in this text go back to PubChem BioAssay AID489035 (Sanford-Burnham Center for Chemical Genomics, 2010).

The structures appear in SMILES notation. The source made the active and inactive calls. No rule for the calls is given here.

The subject of this assay is Jurkat NF-kB reporter, TCR-induced, luciferase luminescence. Description: inhibitors of TCR-driven NF-kB activation, dose response, Jurkat cells, luminescence (AID 489035).
Take `CCOc1ccccc1NC(=O)CN(c1ccc(OC)cc1)S(=O)(=O)c1c(C)noc1C`: the IC50 (usually the concentration that inhibits the measured activity by half) is > 80 µM (inactive).

In the case of `O=C1/C(=C/c2ccc(N3CCOCC3)o2)SC(=Nc2ccccc2)N1CCc1c[nH]c2ccccc12`, the 50% inhibitory concentration (IC50) is 18.3 µM.

`COC(=O)c1ccc2nc(Nc3nc4c(F)cc(F)cc4s3)sc2c1`: the IC50 was 52.9 µM (inactive).

Regarding `O=C1C=C(c2ccc3ncccc3c2)C[C@@H](c2ccc3c(c2)OCO3)C1`, the IC50 was > 80 µM (inactive).

As for `COc1ccc(Nc2nc(-c3sc(C)nc3C)cs2)cc1`, the IC50 is 38.8 µM (inactive).

As to `O=S(=O)(c1cc(F)ccc1F)N1CCN(c2ncnc3ccccc23)CC1`, the IC50 was > 80 µM (inactive).

In the case of `COc1ccc(-n2cc(-c3ccc(C)cc3)[n+]3c2SCC3)cc1`, the IC50 was > 80 µM (inactive).

In the case of `CC1(C)C[C@H]2C=C(C=O)[C@]3(C=O)C[C@]3(C)[C@H]2C1`, the IC50 was 9.17 µM.

As for `Cc1cc(-n2c(C)cc(C(=O)CSc3ncnc4ccccc34)c2C)no1`, the IC50 is < 0.16 µM.

On to `CC(=O)c1ccc(N2CCN(S(=O)(=O)c3ccc4c(c3)CC(C)N4C(=O)C3CC3)CC2)cc1` (centres undefined), for which the IC50 was > 80 µM (inactive).

With `N/C(=N\OCc1ccc([N+](=O)[O-])cc1)c1ccccn1`, the IC50 is 0.67 µM.

With `Cn1nc([N+](=O)[O-])nc1Sc1nnc(-c2ccccc2)o1`, the IC50 was 7.97 µM.

For the compound `COc1cc([C@@H]2c3cc4c(cc3[C@@H](OC)[C@H]3COC(=O)[C@H]23)OCO4)cc(OC)c1O`, the IC50 was > 80 µM (inactive).

Regarding `CS(=O)(=O)c1ccc(Sc2nc3ccccc3s2)c([N+](=O)[O-])c1`, the concentration for half-maximal inhibition (IC50) was 0.89 µM.

As for `CC(=O)O[C@H]1C(=O)[C@@]2(C)C([C@H](OC(=O)c3ccccc3)[C@]3(O)C[C@H](OC(=O)[C@H](O)[C@@H](NC(=O)c4ccccc4)c4ccccc4)C(C)=C1C3(C)C)[C@]1(OC(C)=O)CO[C@@H]1C[C@H]2O` (some centres undefined), the IC50 is < 0.16 µM.

In the case of `COc1cc2c(cc1O)CC[C@@H]1[C@@H]2CC[C@]2(C)[C@@H](O)CC[C@@H]12`, the IC50 is > 80 µM (inactive).

For `Cc1nc(Sc2nnnn2C)c2c3c(sc2n1)CCC3`, the IC50 was 5.19 µM.

`c1ccc(-c2noc(-c3ccc4ccccc4c3)n2)nc1`: the IC50 is 0.46 µM.

As to `CCN(CC)c1ccc2nc3ccccc3[n+](CC)c2c1`, the half-inhibitory concentration (IC50) was 12.4 µM.

As to `CCCCOc1ccccc1C1CC(=O)NC2=C1C(=O)CCC2` (centres undefined), the IC50 was > 80 µM (inactive).

For the compound `CCCCC(=O)NC(c1ccc(N(CC)CC)cc1)c1ccc2cccnc2c1O` (centres undefined), the IC50 was 8.89 µM.

Turning to `CCCC(=O)Nc1nc2ccc(S(=O)(=O)N3CCCCC3)cc2s1`, the IC50 is > 80 µM (inactive).

`CC(=O)c1ccc(Oc2cc(C)nc(-n3nc(C)cc3C)n2)cc1`: the IC50 is 13.5 µM.

For the compound `COc1cc(-c2noc(C)c2-c2ccc3[nH]ccc3c2)cc(OC)c1OC`, the IC50 is 25.3 µM (inactive).

`COC(=O)c1c(NC(=O)c2ccc([N+](=O)[O-])o2)sc2c1CCN(C(C)C)C2`: the IC50 is 6.76 µM.

Regarding `Clc1ccc2c(c1)C(C1=NCCN1)c1ccccc1CS2` (centres undefined), the IC50 is 58.5 µM (inactive).

For `CCn1cc(C(=O)NC2CCCc3c2cnn3-c2cccc(C)c2C)cn1` (centres undefined), the IC50 was > 80 µM (inactive).

As for `O=C(Nc1nc(-c2ccccn2)cs1)c1ccc(Cl)s1`, the IC50 was 2.64 µM.

On to `COC(=O)c1nn(-c2ccc3c(c2)CCN3C(C)=O)cc1O`, for which the IC50 was 1.14 µM.

With `CCN(CC)S(=O)(=O)c1ccc(NC(=O)c2ccc(CN3CCOCC3)cc2)cc1`, the IC50 was > 80 µM (inactive).

Take `Cc1ccc2nc(-c3ccc4c(c3)OCCO4)cn2c1`: the IC50 is 1.01 µM.

In the case of `Cc1csc2ncnc(NC3CCN(Cc4ccccc4)CC3)c12`, the IC50 was > 80 µM (inactive).

For the compound `CCOc1cc(C#N)c(NC(=O)c2cccnc2)cc1OCC`, the IC50 is > 80 µM (inactive).

As to `CCCN1C=CC(=C2C(=O)c3ccccc3C2=O)C=C1`, the IC50 is 0.52 µM.

For `CCN1C=CC(=C2C(=O)c3ccccc3C2=O)C=C1`, the IC50 is 1.03 µM.

On to `Cc1ccc(C(=O)c2cc([N+](=O)[O-])ccc2N2CCCCC2)cc1C`, for which the IC50 is 37 µM (inactive).

In the case of `Cc1ccc2[nH]c(-c3cccc(F)c3)cc(=O)c2c1`, the IC50 is > 80 µM (inactive).

On to `CCOC(=O)Nc1nc(-c2ccccc2)c(C(=O)c2ccccc2)s1`, for which the IC50 was > 80 µM (inactive).

For `CCOC(=O)C(C)Oc1cccc2c(=O)n(CC(=O)NCc3ccc4c(c3)OCO4)ccc12` (centres undefined), the IC50 is 9.88 µM.

Consider `COc1cc2nc(NC(=O)c3ccco3)sc(=O)c2cc1OC`, for which the IC50 was 0.47 µM.

For the compound `CCN(CC)c1ccc(NC(=O)c2cc(OC)cc(OC)c2)c(C)c1`, the IC50 is > 80 µM (inactive).

For `CC(C)CC[n+]1ccccc1/C=C/c1ccc(N(C)C)cc1`, the IC50 was > 80 µM (inactive).

For the compound `COc1ccc(C(C(=O)NC2CCCCC2)N(C(=O)CCl)c2ccc(C)cc2)cc1` (centres undefined), the IC50 was 0.33 µM.

Regarding `COC(=O)C1=C(CN2CCCc3ccccc32)NC(=O)NC1c1ccc(F)cc1` (centres undefined), the IC50 is 1.01 µM.

For `C=C(C=O)C[C@@H]1C[C@H](O)C2OC3C[C@]4(C)OC5/C=C\CC6OC7C(CC=CCC6OC5CCCC4OC3CC2O1)OC1CC2OC3CC(=O)OC3C[C@@H](C)C[C@@]2(C)OC1C[C@@H]7C` (some centres undefined), the IC50 is 1.39 µM.

Regarding `C[C@]12CC[C@H](O)C[C@H]1CC[C@@H]1[C@@H]2CC[C@]2(C)[C@@H](C3=CC(=O)OC3)CC[C@]12O`, the IC50 was 3.53 µM.

Regarding `Cc1ccc(-c2cc(C(F)F)n3ncc(C(=O)N4CCc5ccccc54)c3n2)cc1`, the IC50 is > 80 µM (inactive).

`O=C(COc1ccc(C(=O)c2ccccc2)cc1)NCc1ccc(F)cc1`: the IC50 is 29.2 µM (inactive).

With `CCCCCCCOc1ccc(OC(=O)c2cccnc2)cc1`, the IC50 is > 80 µM (inactive).

For the compound `O=C(Nc1ccc(S(=O)(=O)N2CCN(Cc3ccccc3)CC2)cc1)c1cnccn1`, the IC50 is > 80 µM (inactive).

In the case of `COc1cc(-c2noc(C)c2-c2ccc(N(C)C)nc2)cc(OC)c1OC`, the IC50 was > 80 µM (inactive).

On to `O=C(Sc1cccc2cccnc12)c1ccccc1Br`, for which the IC50 is 3.21 µM.

With `CNC[C@@H](CC1CCCCC1)NC[C@H](CC(C)C)NCCc1cccc(C(F)(F)F)c1`, the IC50 is 5 µM.

On to `N#Cc1ccc(-c2cccs2)nc1SCc1cccnc1`, for which the IC50 is > 80 µM (inactive).

For `O=C1c2c(O)ccc(O)c2C(=O)c2c(NCCNCCO)ccc(NCCNCCO)c21`, the half-inhibitory concentration (IC50) is 2.23 µM.

Turning to `Cc1ccc2c(c1)COc1c3ccc(C(=O)O)cc3nn1-2`, the IC50 was > 80 µM (inactive).

Regarding `CCCCCCCCCCCCCCCC[n+]1ccc(/C=N/O)cc1`, the IC50 was 1.57 µM.

In the case of `CC1CCCN(c2ncnc3c2cnn3-c2ccc(Cl)cc2)C1` (centres undefined), the IC50 is 10.5 µM.

`COc1ccc(CS(=O)/C(Cl)=C(/Cl)C(=O)Nc2ccc(OC)nc2)cc1` (centres undefined): the IC50 was 0.54 µM.

Turning to `Nc1nc2n[nH]nc2c(=O)[nH]1`, the IC50 was > 80 µM (inactive).

For the compound `COc1ccc(C(=O)Nc2ccc3[nH]c(-c4cccc(OC)c4)cc(=O)c3c2)cc1`, the IC50 is < 0.16 µM.

For the compound `COc1cc2c(c(OC)c1OC)-c1ccc(OC)c(=O)cc1[C@@H](NC(C)=O)CC2`, the IC50 was > 80 µM (inactive).

Consider `Oc1ccc(Nc2nc3ccccc3nc2Nc2ccc(O)cc2)cc1`, for which the IC50 is 2.09 µM.

Consider `Cc1c(C(=O)N2CCOCC2)[nH]c2c1C(=O)CC(c1ccccc1Cl)C2` (centres undefined), for which the IC50 is > 80 µM (inactive).
